In patent US7049271B2, “Phenyl-substituted 2-enamino-ketonitriles” (Bayer Aktiengesellschaft, priority 2000, dated 2006):

CN/C(=C(/C#N)C(=O)c1ccc(Cl)cc1)c1ccc(Cl)cc1 [Example 3, 2-(4-chlorobenzoyl)-3-(4-chlorophenyl)-3-(N-methylamino)-propenonitrile]
melting point: 182 °C

C/C(NC1CC1)=C(\C#N)C(=S)c1ccc(Cl)cc1 [Example 8, 2-[(4-chlorophenyl)-thiocarbonyl]-3-(N-cyclopropylamino)-crotononitrile]
melting point: 215 °C
